“Also recorded” adds a separate entry of the source.
Assays:
[1] = system: human cell lines (HEK293, THP-1, macrophage, HepG2, Caco-2); assay: Stability in culture media and human cell lysates (arsenic speciation by HPLC-ICP-MS); details: 100 μM AST, 48 h, five human cell lines
[2] = target: T1, PfGS-I (P. falciparum glutamine synthetase, MBP-fused) (Plasmodium falciparum, UniProt W7JM41); assay: Glutamine synthetase assay (Glutamine/Glutamate-GLO), PfGS-I; type: biochemical
T1 sequence (W7JM41 1-544): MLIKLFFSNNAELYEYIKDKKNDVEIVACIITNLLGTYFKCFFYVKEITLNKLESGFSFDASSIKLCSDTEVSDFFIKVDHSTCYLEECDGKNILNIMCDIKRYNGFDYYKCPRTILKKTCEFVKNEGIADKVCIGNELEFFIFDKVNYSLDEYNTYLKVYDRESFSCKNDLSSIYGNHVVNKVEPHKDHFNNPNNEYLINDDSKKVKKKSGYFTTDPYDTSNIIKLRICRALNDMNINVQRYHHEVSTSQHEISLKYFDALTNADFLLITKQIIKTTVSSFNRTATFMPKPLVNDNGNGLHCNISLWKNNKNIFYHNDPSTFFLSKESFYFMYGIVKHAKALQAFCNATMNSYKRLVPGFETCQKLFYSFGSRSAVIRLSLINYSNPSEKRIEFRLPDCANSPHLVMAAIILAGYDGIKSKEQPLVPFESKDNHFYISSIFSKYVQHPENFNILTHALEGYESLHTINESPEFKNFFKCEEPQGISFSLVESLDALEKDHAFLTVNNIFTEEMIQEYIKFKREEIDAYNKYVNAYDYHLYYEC
Procedure: (§1) The activity and inhibition profiles of purified MBP-fused PfGS-I or human GS-II (hGS-II) (BioVision Inc., Milpitas, CA, USA) in the presence or absence of AST were estimated from glutamine production using Glutamine/Glutamate-GLO™ Assay Kit (Promega, Madison, WI). The assay mixture (50 mM imidazole-HCl buffer (pH 7.0), 7.6 mM ATP, 50 mM magnesium chloride, 50 mM ammonium chloride) with or without the indicated concentration of GS enzyme was preincubated in the presence or absence of the indicated concentrations of AST for 15 min at room temperature. The reaction was initiated by addition of L-glutamate at 0.1 mM, final concentration. The reaction mixtures were incubated at 37° C. with shaking at 300 rpm for indicated time. The reactions were terminated by chilling the reaction mixture in ice water and filtered with 30 kDa Amicon Ultra centrifugal filters at 4° C. Glutamate concentrations in the filtered samples were determined using Glutamine/Glutamate-GLO™ Assay as instructed in the kit's manual, from which glutamine concentrations were estimated by subtracting the glutamate concentrations from the initial concentrations (0.1 mM). The half maximal effective concentration (EC50) of AST for PfGS-I was calculated using Sigma Plot (Systat Software, Inc., Sun Jose, CA).

[3] = system: human cell lines (HEK293, THP-1, macrophage, HepG2, Caco-2); assay: MTT cytotoxicity assay, five human cell lines overall
human GS-II (hGS-II) = target: T2, human GS-II (hGS-II) (Homo sapiens, UniProt P15104); assay: Glutamine synthetase assay (Glutamine/Glutamate-GLO), human GS-II; type: biochemical; details: 1 μM AST, 1 μM hGS-II, 30 min
T2 construct: purchased BioVision Inc
Procedure: as §1

[4] = system: Anopheles gambiae mosquitoes; assay: Mosquito mortality observed in SMFA (insecticidal activity); type: in vivo; details: 0.1 to 3 μM in blood meal
Procedure: (§2) P. falciparum (NF54) was cultured in the complete RPMI-1640 containing 4% new O+ human red blood cells, 10% human AB+ serum, and 12.5 μg/ml of hypoxanthine in a candle jar at 37° C. Standard membrane feeding assays (SMFA) were used to examine the efficacy of AST. In brief, 10 ml of day-15 cultured P. falciparum containing ˜2% stage V gametocytes in a 15 ml centrifuge tube was centrifuged at 650×g for 5 min at RT. After the supernatant was removed, the cells were re-suspended in 1 ml of pre-warmed human AB− serum (37° C.), to which 1 ml of O+ hematocrit was added. 300 μl of the resulting infected blood were mixed with 2 μl of AST at different concentrations, yielding a final concentration of 0, 0.1, 0.3, 1, or 3 μM, which was fed a hundred 3-5-day-old female mosquitoes for 30 minutes. The unfed mosquitoes were removed, and the engorged mosquitoes were maintained with 10% sugar in the insectary. Seven days post-infection, the midguts were dissected and stained with 0.1% mercury dibromofluorescein salt in PBS for 30 minutes. The number of oocysts was counted under a 10× light microscope.

[5] = system: sexual-stage P. falciparum transmission to Anopheles gambiae; assay: Transmission-blocking standard membrane feeding assay (SMFA), oocysts in An. gambiae midguts; type: in vivo, Plasmodium falciparum
Procedure: as §2, with “300 μl of the resulting infected blood were mixed with 2 μl of AST at different concentrations, yielding a final concentration of 0, 0.1, 0.3, 1, or 3 μM, which was fed a hundred 3-5-day-old female mosquitoes for 30 minutes.” left out

[6] = system: macrophage-like cells differentiated from THP-1
[7] = system: asexual-stage P. falciparum; assay: Antimalarial activity on the asexual stage of P. falciparum (parasitemia in infected red blood cells); type: cell-based, Plasmodium falciparum
Procedure: 3-5-day cultured P. falciparum-infected red blood cells (iRBCs) were mixed with fresh human RBCs (AB+ type) in complete RPMI 1640 to prepare cultures with 0.5% parasitemia and 2% hematocrit. AST was dissolved in DMSO. […] The plate was incubated in a candle jar at 37° C. Approximately 48 h later, the medium was replaced with fresh medium containing the same concentration of AST. Parasitemia was recorded on day 4 post-incubation.

[8] = system: human cell lines (HEK293, THP-1, macrophage, HepG2, Caco-2)

T2 sequence (P15104 whole entry): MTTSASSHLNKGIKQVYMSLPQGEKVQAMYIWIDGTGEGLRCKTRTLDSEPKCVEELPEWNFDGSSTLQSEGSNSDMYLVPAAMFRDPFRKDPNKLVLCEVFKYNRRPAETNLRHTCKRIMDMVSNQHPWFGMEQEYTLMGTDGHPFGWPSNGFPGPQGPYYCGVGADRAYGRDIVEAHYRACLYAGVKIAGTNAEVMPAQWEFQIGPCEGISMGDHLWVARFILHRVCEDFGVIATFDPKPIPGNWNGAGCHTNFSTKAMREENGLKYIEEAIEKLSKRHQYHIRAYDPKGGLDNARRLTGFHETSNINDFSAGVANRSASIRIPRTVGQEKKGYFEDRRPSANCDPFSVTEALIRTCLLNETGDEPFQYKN

Compound: C[As](=O)(O)CC[C@H](N)C(=O)O [AST, 2-amino-4-(hydroxymethylarsinoyl)butanoate]
- arsenic species in culture media and cell lysates (stability) [1]: almost exclusively AST
- EC50 ([2]; 0.5 μM PfGS-I, 2 hours, read-out: EC50 for PfGS-I inhibition): 400 nM
- reduction of PfGS-I activity ([2]; 1 μM AST): more than 60%
- activity of PfGS-I compared with the control without AST treatment ([2]; 1 μM AST, 1 μM PfGS-I, 30 min): less than 40%
- inhibition of PfGS-I activity ([2]; AST at 100 μM): completely inhibits
- CC50 (HEK293 cells): > 250 µM
- effect on viability of the tested human cell lines ([3]; AST at 100 μM, most of the tested cell lines): little effect
- times less cytotoxic than As(III) ([3]; ratio of LC50 values, human cell lines): > 10 times
- CC50 (THP-1 cells): > 250 µM
- effect on hGS-II activity (human GS-II (hGS-II)): did not significantly reduce; also recorded: little effect
- CC50 (HepG2 cells): > 250 µM
- dead mosquitoes (insecticidal activity) [4]: no dead mosquitoes were observed
- CC50 (Caco-2 cells): 150 to 200 µM
- inhibition of P. falciparum transmission to An. gambiae compared to PT and MSO ([5]; 3 μM, SMFA, oocysts day 7): significantly inhibits
- inhibition of malaria transmission ([5]; 3 μM, SMFA, oocysts day 7): completely inhibited
- inhibition of transmission to mosquitoes ([5]; AST at 100 μM): completely inhibits
- EC50 ([5]; SMFA, An. gambiae, oocysts day 7 post-infection, read-out: EC50 in blocking transmission of sexual-stage P. falciparum to mosquitos (50% of oocysts per mosquito vs control)): 340 nM
- CC50 [6]: > 250 µM
- inhibition of P. falciparum proliferation in blood ([7]; AST at 100 μM): completely inhibits
- EC50 ([7]; infected human blood, 0.5% parasitemia, 2% hematocrit, day 4, read-out: EC50 in inhibiting asexual-stage P. falciparum (50% of parasitemia rate vs AST-free control)): 13.9 µM
- permeability (total arsenic levels in cells) [8]: permeable to cytomembrane
- permeability to HepG2 cells [8]: moderately permeable
